Measurements from patent publication US8951976B2, “Progression inhibitor for disease attributed to abnormal accumulation of liver fat” (Kissei Pharmaceutical Co., Ltd., priority 2004, dated 2015).

How the values were obtained:
[1] = target: T1, SGLT2 (Mus musculus, UniProt Q923I7); assay: Test to confirm inhibitory effect on accumulation of liver lipids in KKAy mice bearing fatty liver; type: in vivo, KKA^y mice
T1 construct: Using KKA^y mice (KKAy/Ta Jcl, CLEA Japan, Inc.) as experimental animals; tissue CLEA Japan, Inc. KKAy/Ta Jcl; host or cells: living KKAy mice (whole animal; SGLT2 acts in kidney)
T1 sequence (Q923I7 1-670): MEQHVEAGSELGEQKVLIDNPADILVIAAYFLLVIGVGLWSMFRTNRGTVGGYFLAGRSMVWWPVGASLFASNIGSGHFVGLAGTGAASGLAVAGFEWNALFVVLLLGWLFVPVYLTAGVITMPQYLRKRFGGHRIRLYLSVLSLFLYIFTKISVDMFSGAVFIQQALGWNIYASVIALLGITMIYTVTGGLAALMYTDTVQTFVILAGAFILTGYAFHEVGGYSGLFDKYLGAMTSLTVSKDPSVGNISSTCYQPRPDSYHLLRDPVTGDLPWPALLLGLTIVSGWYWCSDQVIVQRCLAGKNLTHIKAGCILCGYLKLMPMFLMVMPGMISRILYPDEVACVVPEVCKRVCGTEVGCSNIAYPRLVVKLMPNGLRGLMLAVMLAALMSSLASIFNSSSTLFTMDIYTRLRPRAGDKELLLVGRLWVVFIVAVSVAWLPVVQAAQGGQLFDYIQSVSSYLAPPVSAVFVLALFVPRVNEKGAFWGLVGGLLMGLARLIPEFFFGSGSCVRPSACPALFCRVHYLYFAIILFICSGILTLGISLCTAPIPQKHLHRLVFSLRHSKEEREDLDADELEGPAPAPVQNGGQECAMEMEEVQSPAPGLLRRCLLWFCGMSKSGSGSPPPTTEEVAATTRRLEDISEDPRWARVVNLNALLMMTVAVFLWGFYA
Procedure: Using KKA^y mice (KKAy/Ta Jcl, CLEA Japan, Inc.) as experimental animals, inhibitory effects on accumulation of lipids in liver based on SGLT2 inhibitory effects were evaluated. KKA^y mice bearing fatty liver were prepared as follows.
Female 10-week-old KKA^y mice were bred preparatorily for 4 weeks. During preparatory breeding until 4 days before grouping, the mice were fed on a pellet CE-2 diet for laboratory animal (CLEA Japan, Inc.) under free feeding. From 4 days before grouping, the food was changed to a powdered CE-2 diet for laboratory animal (CLEA Japan, Inc.). At the age of 14 weeks, body weight, blood glucose level and plasma alanine aminotransferase level (ALT) were measured for grouping. The mice were grouped (5 animals in each group) so that in any of these three laboratory values no significant difference was observed between the two groups. In the second group, the mice were fed on a powdered CE-2 diet for laboratory animal (CLEA Japan, Inc.) containing 1000 ppm of 2-(4-methoxybenzyl)phenyl 6-O-ethoxycarbonyl-β-D-glucopyranoside (hereinafter referred to as Compound A) as a SGLT2 inhibitor for 11 days, and then triglyceride contents in liver were measured.
Method of measurement of liver triglyceride content was described as follows. • 1) Ice-cold saline (Otsuka Pharmaceutical Co., Ltd.) was added to liver in the proportion of 4 mL of ice-cold saline to 1 g of the liver, and then a homogenized suspension was prepared in a pestle homogenizer. • 2) To 100 μL of the suspension 1), 800 μL of Folch reagent (chloroform:methanol=2:1) was added and mixed vigorously, and total lipids was extracted. • 3) The mixture 2) was centrifuged (3000 rpm, for 10 min, at room temperature) using a cooled centrifuge (KUBOTA8900, KUBOTA Corporation). • 4) The lower layer after centrifugation in 3) was collected and transferred to another container, and that is referred to as Solution (A). • 5) To the upper layer after centrifugation in 3), 150 μL of Folch reagent was added and mixed vigorously, and centrifugation by the operation identical to that in 3) was performed. […]

[2] = cited from earlier work

CCOC(=O)OC[C@H]1O[C@@H](Oc2ccccc2Cc2ccc(OC)cc2)[C@H](O)[C@@H](O)[C@@H]1O [Compound A, 2-(4-methoxybenzyl)phenyl 6-O-ethoxycarbonyl-β-D-glucopyranoside]
lipid accumulation in liver ([1]; administration to KKA^y mice bearing fatty liver, compared to drug-untreated mice): significantly suppressed | Liver triglyceride content ([1]; female KKA^y mice bearing fatty liver, diet containing 1000 ppm for 11 days, mean ± standard error of the mean, * significant (5% or less) vs drug-untreated group): 25.4 ± 3.6* mg/g liver | increase of lipid accumulative amount in liver ([1]; orally administered to rat (so in the source), in comparison with no administration): inhibited significantly

CCOC(=O)C(C)(C)Oc1ccc(Cl)cc1 [clofibrate]
lipid accumulation in liver as a side effect ([2]; Patent Reference 22, while it lowers neutral fat or cholesterol in blood): causes lipid accumulation in liver

CCCCNC(=O)NS(=O)(=O)c1ccc(C)cc1 [tolbutamide]
suppressive effects on lipid accumulation in liver ([2]; non-Patent Reference 7): does not exhibit suppressive effects
